# Test results published in patent US4624950A, “Method for treating atherosclerosis hyperlipidema, lipid deposition on arterial walls, or raising the ratio of high density lipoprotein cholesterol to total cholesterol in serum” (Nissan Chemical Industries Ltd., priority 1983, dated 1986).
# Tested on: normal rats
# Assay: Activities against serum lipid, degree of hepatomegaly and GOT/GPT in normal rats (Test 5)
# Format: in vivo, rat (male S.D.)
# Settings: 300 mg/kg/day, seven days
# Procedure: It is administered from once to three times per day. The dose may of course be varied depending upon the age, the weight or the condition of illness of the patient. […] In the following tests, the fractionation of lipoproteins was conducted by a dextran sulfate-MgCl2 precipitation method.
# Cholesterol in serum was measured by means of a cholesterol measuring kit (Cholesterol C-Test Wako, manufactured by Wako Junyaku Co., Ltd.), and cholesterol in HDL was measured by means of NC Hi-Set, manufactured by Nippon Chemiphar Co., Ltd. The quantitative analysis of triglyceride was conducted by means of a triglyceride measuring kit (Triglyceride C-II-Test Wako, manufactured by Wako Junyaku Co., Ltd.).
# Further, the change rate in the following Tables, was calculated by the following equation.
# Change rate(%)=(A-B/A)×100
# where A is the amount of serum lipids (mg/dl) of the control group, and B is the amount of serum lipids (mg/dl) of the group to which the therapeutic agent was administered.
# The activities against serum lipid, the degree of hepatomegaly and the hepatic drug metabolizing systems of normal rats
# Male S.D. rats (6 weeks old) were divided into groups of 5 rats each. The test compounds suspended in 5% gum arabic were given to the rats once a day for seven days in a daily dose of 300 mg/kg. Then, the rats were fasted for one day, blood samples were taken, and the total cholesterol, triglyceride, HDL-cholesterol in the serum were quantitatively analyzed. Further, the liver weight was measured, and the degree of hepatomegaly was determined by comparing the weight ratio per 100 g of the body weight with that of the control group. Furthermore, GOT and GPT values were measured, and the activities of cytochrome P-450 and glutathione related enzymes were also measured. These values were compared with those of the control groups to investigate any abnormality.
smiles,measurement,setting,value
"CN1C(=S)SC(c2ccccc2)N(C)C1c1ccccc1 (stereo not shown) [Compound of the formula I, 3,5-dimethyl-4,6-diphenyl-tetrahydro-2H-1,3,5-thiadiazine-2-thione]",Hepatic insufficiency from GOT and GPT values (in words),,No hepatic insufficiency was observed
same,Hepatomegaly (in words),,no substantial hepatomegaly
same,LDL-cholesterol reduction (in words),,ramarkably reduces LDL-cholesterol
same,"Serum lipid, HDL-Chol",,29.2 mg/dL
same,"Serum lipid, TG",,37.5 mg/dL
same,"Serum lipid, Total-Chol",,39.2 mg/dL
same,"Change rate, HDL-Chol",vs control,-1.0%
same,"Change rate, TG",vs control,-21.0%
same,"Change rate, Total-Chol",vs control,-16.2%
same,Degree of hepatomegaly,vs control,+7.0%
